Laboratory results taken from patent publication US20070276034A1, “Compounds, compositions and methods for the treatment of synucleinopathies” (priority 2002, published 2007).
Read-outs that look alike come from different tables or passages of the source.

Legend:
NAC fibrils = biological target: T1, NAC fibrils (Homo sapiens, UniProt P37840); test: Congo red binding assay with NAC fibrils; type: biochemical; conditions: for % Inhibition NAC (result ± S.D.), Congo red binding: 3-day incubation
T1 construct: NAC is a 35-amino acid fragment of α-synuclein; purchased Bachem Inc
Method: (§1) In the Congo red binding assay, the ability of a given test compound to alter amyloid (in this case, NAC) binding to Congo red is quantified. In this assay, NAC and test compounds were incubated for 3 days and then vacuum filtered through a 0.2 μm filter. The amount of NAC retained in the filter was then quantitated following staining of the filter with Congo red. After appropriate washing of the filter, any lowering of the Congo red color on the filter in the presence of the test compound (compared to the Congo red staining of the amyloid protein in the absence of the test compound) was indicative of the test compound's ability to diminish/alter the amount of aggregated and congophilic NAC.
In one study, the ability of NAC fibrils to bind Congo red in the absence or presence of increasing amounts of compounds #1, 3, 23, 26, 63, 66, 67, or EDTA (at NAC:test compound weight ratios of 1:1, 1:0.1, 1:0.01 or 1:0.001) was determined.

Aβ 1-42 fibrils [1] = biological target: T2, Aβ 1-42 fibrils (Homo sapiens, UniProt P05067); test: Congo red binding assay with Aβ 1-42 fibrils; type: biochemical; conditions: for % Inhibition Aβ (result ± S.D.), Congo red binding: 3-day incubation
T2 construct: purchased Bachem Inc
Method: as §1, with “binding assay” for “binding assay,”, “a” for “a given”, “case, Aβ)” for “case, NAC)”, “assay, Aβ 1-42” for “assay, NAC”, “of Aβ 1-42” for “of NAC”, “congophilic Aβ.” for “congophilic NAC.”
In one study, the ability of Aβ fibrils to bind Congo red in the absence or presence of increasing amounts of the compounds or EDTA (at Aβ:test compound weight ratios of 1:1, 1:0.1, 1:0.01 or 1:0.001) was determined.

[2] = system: A53T α-synuclein-expressing BE-M17 cells; test: XTT Cytotoxicity assay - protection against rotenone-induced cytotoxicity; type: cell-based
Source text: Therefore, to test the therapeutic potential of the compounds, two cell-based assays were utilized. In both assays, rotenone is used to induce mitochondrial oxidative stress and α-synuclein aggregation. The first assay utilizes the binding of the fluorescent dye thioflavin S to structures with high β-sheet content including α-synuclein fibrils. Therefore, quantitative assessment of the extent of thioflavin S-positive staining of fixed cells is used to test the ability of the compounds to decrease the amount of α-synuclein aggregates. In the second assay, cell viability is assessed using the XTT Cytotoxicity assay, which is dependent on intact, functional mitochondria in live cells. Thus, the XTT Cytotoxicity assay is used to test the ability of the compounds to ameliorate the mitochondrial toxicity and resulting loss of viability associated with the accumulation of α-synuclein aggregates. Phrased another way, the XTT Cytotoxicity assay is used to gauge the compounds neuroprotective efficacy. These studies are presented in the following examples.
BE-M17 human neuroblastoma cells stably transfected with A53T-mutant human α-synuclein were obtained. Cell culture reagents were obtained from Gibco/Invitrogen, and cells were grown in OPTIMEM supplemented with 10% FBS, Penicillin (100 units/mil)-Streptomycin (100 μg/ml) and 500 μg/ml G418 as previously described (Ostrerova-Golts et al., J. Neurosci., 20:6048-6054, 2000).
Research has shown that the accumulation of α-synuclein fibrils in Lewy bodies contributes mechanistically to the degradation of neurons in Parkinson's disease and related disorders (Polymeropoulos et al., Science 276:2045-2047, 1997; Kruger et al., Nature Genet. 18:106-108, 1998). Here, the XTT Cytotoxicity assay (hereafter referred to as the XTT assay) was used to measure the ability of test compounds to protect against rotenone-induced cytotoxicity (neuroprotective ability). The assay is based on the principle that conversion of the yellow tetrazolium salt XTT to form an orange formazan dye (that absorbs light around 490 nm) occurs only in metabolically active, viable cells. Therefore, light absorbance at 490 nm is proportional to cell viability. For this assay, cells were plated in 96 well tissue culture dishes at 10^4 cells per well. After 24 hours, cells were treated with 500 nM or 2 μM rotenone, or vehicle (0.05% DMSO) as indicated. Immediately after rotenone addition, compounds were added at the indicated concentration. […] Untreated cells received cell culture media only (no compound, with or without rotenone). After 40-44 hours of treatment, conditioned media was removed and replaced with 100 μl fresh media and 50 μl XTT labeling reaction mixture according to the manufacturer's recommendations. Four to five hours later, the absorbance at 490 nm was measured and corrected for absorbance at the 700 nm reference wavelength. […] Percent inhibition of cell death was calculated as the proportion of the rotenone-induced absorbance (viability) decrease that was eliminated by test compound treatment.

Aβ 1-42 fibrils [3] = biological target: T2, Aβ 1-42 fibrils; test: Circular dichroism spectroscopy of Aβ 1-42 fibrils; type: biochemical
Method: Circular dichroism (CD) spectroscopy is a method that can be used to determine the effects of test compounds to disrupt the secondary structure conformation of amyloid fibrils. In one study, as described in this example, circular dichroism spectroscopy was used to determine the effects of different compounds of the invention on β-sheet conformation of Aβ 1-42 fibrils. For this study, Aβ 1-42 (Bachem Inc., Torrance, Calif.) was first dissolved in a 2 mM NaOH solution, maintaining the pH of these solutions above 10. […] Aβ 1-42 was then incubated at 37° C. in the absence or presence of different compounds at an Aβ:test compound wt/wt ratios of 1:0.1, 1:1 and 1:10. After 3 days of incubation, CD spectra were recorded on a Jasco 810 spectropolarimeter (Easton, Md.). All CD spectra were collected with 0.05 cm quartz cells. Wavelength traces were scanned from 190-260 nm at 0.5 nm increments with a bandwidth of 5 nm, at a scan speed of 10 nm/minute, a response time of 32 seconds, and a data pitch of 0.5 nm. The whole system was equilibrated and continuously flushed with nitrogen at 10 ml/minute. […] Ellipticity in degrees was converted to MRE ([Q]; molar residue ellipticity) using the formula [Q]=100•[…]; where Q is the ellipticity in degrees; […]

[4] = NAC:test compound wt/wt ratio 1:0.1
[5] = NAC:test compound wt/wt ratio 1:1
[6] = NAC:test compound wt/wt ratio 1:0.001
[7] = NAC:test compound wt/wt ratio 1:0.01
[8] = Aβ:test compound wt/wt ratio 1:0.001
[9] = Aβ:test compound wt/wt ratio 1:0.1
[10] = Aβ:test compound wt/wt ratio 1:1
[11] = 50 μg/ml compound, at both rotenone doses (500 nM or 2 μM)
[12] = 5 μg/ml compound, rotenone 500 nM or 2 μM
[13] = all concentrations tested (ratios 1:1 to 1:0.001), 3 days

T2 sequence (P05067 672-713): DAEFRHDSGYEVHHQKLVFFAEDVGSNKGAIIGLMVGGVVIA

O=C(N[C@@H]1CCCC[C@H]1NC(=O)c1ccc(O)c(O)c1)c1ccc(O)c(O)c1 (relative stereo) [Compound 26, N,N′-bis(3,4-dihydroxybenzoyl)-trans-1,2-diaminocyclohexane]
% Inhibition NAC (result ± S.D.), Congo red binding (NAC fibrils; [4]): 36.7 ± 5.59% | % Inhibition NAC (result ± S.D.), Congo red binding (NAC fibrils; [5]): 34.4 ± 10.19%

O=C(c1ccc(O)c(O)c1)C(O)c1ccc(O)c(O)c1 (stereo not shown) [Compound 1, 3,4,3′,4′-tetrahydroxybenzoin]
% Inhibition NAC (result ± S.D.), Congo red binding (NAC fibrils; [4]): 75.9 ± 2.58% | % Inhibition NAC (result ± S.D.), Congo red binding (NAC fibrils; [5]): 75.4 ± 2.96%

Oc1ccc(Cc2ccc(O)c(O)c2)cc1O [Compound 3, 3,4,3′,4′-tetrahydroxydiphenylmethane]
% Inhibition NAC (result ± S.D.), Congo red binding (NAC fibrils; [6]): 65.2 ± 5.40% | % Inhibition NAC (result ± S.D.), Congo red binding (NAC fibrils; [7]): 81.7 ± 2.82% | % Inhibition NAC (result ± S.D.), Congo red binding (NAC fibrils; [4]): 83.2±3.57% | % Inhibition NAC (result ± S.D.), Congo red binding (NAC fibrils; [5]): 94.4±2.48% | % Inhibition Aβ (result ± S.D.), Congo red binding (Aβ 1-42 fibrils [1]; [8]): 1.7 ± 4.21% | % Inhibition Aβ (result ± S.D.), Congo red binding (Aβ 1-42 fibrils [1]; [9]): 35.7 ± 3.29% | % Inhibition Aβ (result ± S.D.), Congo red binding (Aβ 1-42 fibrils [1]; [10]): 91.6±5.19%

O=C(NCc1ccc(O)c(O)c1)C(=Cc1ccc(O)c(O)c1)NC(=O)c1ccc(O)c(O)c1 [Compound 21, α-(3,4-dihydroxybenzamido)-3,4-dihydroxycinnamic acid 3,4-dihydroxybenzyl amide]
inhibition of rotenone-induced loss of viability [2, 11]: 30-40%

O=C(Nc1ccc(O)c(O)c1)c1ccc(O)c(O)c1 [Compound 51, 3,4-dihydroxybenzoic acid 3,4-dihydroxyanilide]
optimal therapeutic dose in XTT assay ([2]; 500 nM rotenone): ~25 µg/mL | inhibition of rotenone-induced loss of viability [2, 11]: 25-30% | inhibition at 10 µg/mL ([2]; Homo sapiens, 10 μg/ml compound, 500 nM rotenone, read-out: inhibition of rotenone-induced toxicity): 45% | inhibition at 25 µg/mL ([2]; Homo sapiens, 25 μg/ml compound, 500 nM rotenone, read-out: inhibition of rotenone-induced toxicity): 55% | disruption of β-sheet structure in Aβ 1-42 fibrils (CD minima at 218 nm) (Aβ 1-42 fibrils [3]; 3 days co-incubation, 25 μM Aβ 1-42 (FIG. 1, FIG. 2)): marked disruption of β-sheet structure | disruption of β-sheet structure of Aβ 1-42 fibrils (CD minima at 218 nm) (Aβ 1-42 fibrils [3]; Aβ:test compound wt/wt ratio of 1:10 (FIG. 3)): completely disrupt the β-sheet structure | dose-response of disruption of β-sheet structure of Aβ 1-42 fibrils (CD minima at 218 nm) (Aβ 1-42 fibrils [3]; Aβ:test compound wt/wt ratios of 1:0.1, 1:1 and 1:10 (FIG. 3)): dose-dependent decrease in the minima

O=C(Nc1ccc(O)c(O)c1)C(=O)Nc1ccc(O)c(O)c1 [Compound 63, oxalic acid bis(3,4-dihydroxyanilide)]
inhibition of rotenone-induced loss of viability [2, 12]: 10-13% | inhibition at 50 µg/mL ([2]; Homo sapiens, 50 μg/ml compound, 500 nM rotenone, read-out: inhibition of rotenone-induced toxicity): ~55% | inhibition at 50 µg/mL ([2]; Homo sapiens, 50 μg/ml compound, 2 μM rotenone, read-out: inhibition of rotenone-induced toxicity): ~35%

O=C(CCC(=O)NCc1ccc(O)c(O)c1)NCc1ccc(O)c(O)c1 [Compound 67, succinic acid bis(3,4-dihydroxybenzylamide)]
% Inhibition NAC (result ± S.D.), Congo red binding (NAC fibrils; [5]): 81.2 ± 2.87%

O=C(Nc1ccc(O)c(O)c1)Nc1ccc(O)c(O)c1 [Compound 76, 1,3-bis(3,4-dihydroxyphenyl)urea]
inhibition of rotenone-induced loss of viability [2, 12]: approximately 18%

O=C(O)CN(CCN(CC(=O)O)CC(=O)O)CC(=O)O [EDTA, reference compound]
% Inhibition NAC (result ± S.D.), Congo red binding (NAC fibrils; [6]): 0.0 ± 20.57% | % Inhibition NAC (result ± S.D.), Congo red binding (NAC fibrils; [7]): 0.0 ± 22.0% | % Inhibition NAC (result ± S.D.), Congo red binding (NAC fibrils; [4]): 0.0 ± 38.26% | % Inhibition NAC (result ± S.D.), Congo red binding (NAC fibrils; [5]): 0.2 ± 7.33% | inhibition of NAC fibril binding to Congo red (in words) (NAC fibrils; [13]): no significant inhibition | % Inhibition Aβ (result ± S.D.), Congo red binding (Aβ 1-42 fibrils [1]; [8]): 7.91 ± 3.61% | % Inhibition Aβ (result ± S.D.), Congo red binding (Aβ 1-42 fibrils [1]; Aβ:test compound wt/wt ratio 1:0.01): 0.0 ± 3.91% | % Inhibition Aβ (result ± S.D.), Congo red binding (Aβ 1-42 fibrils [1]; [9]): 3.6 ± 8.68% | % Inhibition Aβ (result ± S.D.), Congo red binding (Aβ 1-42 fibrils [1]; [10]): 1.1 ± 7.02% | inhibition of Aβ 1-42 fibril binding to Congo red (in words) (Aβ 1-42 fibrils [1]; [13]): no significant inhibition
